Among the data in patent US20130116231A1, “TYROSINE KINASE INHIBITORS” (Merck Sharp & Dohme Corp., priority 2010, published 2013) are IC50 values, retold here.

In the test the target is T1, human c-Met (Homo sapiens, UniProt P08581).
T1 construct: Recombinant GST-tagged cytosolic domains of human c-Met; 6xHis; made in house; host or cells: Sf9 or Sf21 insect cells (baculovirus)
The experiment in a line: in vitro kinase assay (homogeneous time-resolved tyrosine kinase assay, METKA). The format is biochemical. Conditions: recombinant GST-tagged c-Met cytosolic domain, HTRF, 50 μM MgATP; read-out: Biological Activity (METKA IC50) Activity Code. An excerpt:
Recombinant GST-tagged cytosolic domains of human c-Met and other receptor tyrosine kinases including mouse c-Met, human Ron, KDR, IGFR, EGFR, FGFR, Mer, TrkA and Tie2 are used to determine whether the compounds of the instant invention modulate the enzymatic activities of these kinases.
Soluble recombinant GST-tagged cytosolic domains of c-Met and other receptor tyrosine kinases are expressed in a baculovirus system (Pharmingen) according to a protocol recommended by the manufacturer. The c-DNA encoding each cytosolic domain is subcloned into a baculovirus expression vector (pGcGHLT-A, B or C, Pharmingen) containing an in frame 6× histidine tag and a GST tag. The resulting plasmid construct and BaculoGold baculovirus DNA (Pharmingen) are used to co-transfect Sf9 or Sf21 insect cells. After confirming expression of GST-tagged kinase fusion, a high titer recombinant baculovirus stock is produced, expression conditions are optimized, and a scaled up expression of rat KDR-GST fusion is performed. The fusion kinase is then purified from the insect cell lysate by affinity chromatography using glutathione agarose (Pharmingen). The purified protein is dialyzed against 50% glycerol, 2 mM DTT, 50 mM Tris-HCl (pH 7.4) and stored at −20° C. The protein concentrations of the fusion proteins are determined using Coomassie Plus Protein Assay (Pierce) with BSA as standard.
The kinase activities of c-Met and other kinases are measured using a modified version of the homogeneous time-resolved tyrosine kinase assay described by Park et al. (1999, Anal. Biochem. 269:94-104).
The procedure for determining the potency of a compound to inhibit c-Met kinase comprises the following steps: • 1. Prepare 3-fold serial diluted compound solutions in 100% dimethyl sulfoxide (DMSO) at 20× of the desired final concentrations in a 96 well plate. • 2. Prepare a master reaction mix containing 6.67 mM MgCl2, 133.3 mM NaCl, 66.7 mM Tris-HCl (pH 7.4), 0.13 mg/ml BSA, 2.67 mM dithiothreitol, 0.27 nM recombinant c-Met and 666.7 nM biotinylated synthetic peptide substrate (biotin-ahx-EQEDEPEGDYFEWLE-CONH2) (SEQ.ID.NO.:1). • 3. In a black assay plate, add 2.5 μl of compound solution (or DMSO) and 37.5 μl of master reaction mix per well. Initiate the kinase reaction by adding 10 μl of 0.25 mM MgATP per well. Allow the reactions to proceed for 80 min at room temperature. The final conditions for the reaction are 0.2 nM c-Met, 0.5 μM substrate, 50 μM MgATP, […], 100 mM NaCl, 2 mM DTT, 0.1 mg/ml BSA, 50 mM Tris (pH 7.4) and 5% DMSO. • 4. Stop the kinase reaction with 50 μl of Stop/Detection buffer containing 10 mM EDTA, 25 mM HEPES, 0.1% TRITON X-100, 0.126 μg/ml Eu-chelate labeled anti-phosphotyrosine antibody PY20 (cat. #AD0067, PerkinElmer) and 45 μg/ml Streptavidin-allophycocyanin conjugate (cat. #PJ25S, Prozyme). • 5. Read HTRF signals on a Victor reader (PerkinElmer) in HTRF mode after 60 min. • 6. IC50 is determined by fitting the observed relationship between compound concentration and HTRF signal with a 4-parameter logistic equation. Essentially the same procedure was used to determine the potency of compounds to inhibit mouse c-Met, human Ron, KDR, IGFR, EGFR, FGFR, Mer, TrkA and Tie2 except that the concentration of enzyme varied in individual assays (0.2 nM mouse c-Met; 2.5 nM Ron, 8 nM KDR; 0.24 nM IGFR; 0.24 nM EGFR; 0.14 nM FGFR; 16 nM Mer; 8 nM TrkA; 8 nM Tie2).

T1 sequence (P08581 956-1390 limits assumed): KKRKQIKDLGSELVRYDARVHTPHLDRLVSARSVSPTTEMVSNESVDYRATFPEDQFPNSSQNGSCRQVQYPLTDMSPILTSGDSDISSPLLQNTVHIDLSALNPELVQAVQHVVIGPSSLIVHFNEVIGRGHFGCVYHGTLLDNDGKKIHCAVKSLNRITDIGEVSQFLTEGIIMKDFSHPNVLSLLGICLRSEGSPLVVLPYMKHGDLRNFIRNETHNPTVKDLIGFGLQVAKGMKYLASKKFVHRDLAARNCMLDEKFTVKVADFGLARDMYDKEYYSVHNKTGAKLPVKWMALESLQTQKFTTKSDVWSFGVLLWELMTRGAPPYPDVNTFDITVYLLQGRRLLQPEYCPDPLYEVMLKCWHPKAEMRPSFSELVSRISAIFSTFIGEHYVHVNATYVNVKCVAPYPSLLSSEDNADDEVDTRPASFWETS

As to `CNC(=O)c1ccc(OCc2nn(-c3cnn(C)c3)ccc2=O)cc1` [Example 16, N-methyl-4-{[1-(1-methyl-1H-pyrazol-4-yl)-4-oxo-1,4-dihydropyridazin-3-yl]methoxy}benzamide], the IC50 fell in the range of 0.1 to 1 µM.

With `Cn1cc(-n2ccc(=O)c(COc3ccc(C(=O)NCC(F)(F)F)cc3)n2)cn1` [Example 18, 4-{[1-(1-methyl-1H-pyrazol-4-yl)-4-oxo-1,4-dihydropyridazin-3-yl]methoxy}-N-(2,2,2-trifluoroethyl) benzamide], the 50% inhibitory concentration (IC50) lay in the range of 1 to 3 µM.

`Cn1cc(-n2ccc(=O)c(COc3ccc4[nH]c(-c5ccccc5)nc4c3)n2)cn1` [Example 19, 1-(1-methyl-1H-pyrazol-4-yl)-3-{[(2-phenyl-1H-benzimidazol-5-yl)oxy]methyl}pyridazin-4(1H)-one]: the IC50 was less than 0.1 µM.

On to `O=c1ccn(-c2cccc(Br)c2)nc1COc1ccc2ncccc2c1` [Example 20, 1-(3-Bromophenyl)-3-[(quinolin-6-yloxy)methyl]pyridazin-4(1H)-one], for which the IC50 was less than 0.1 µM.

Turning to `O=c1ccn(-c2cncc(Br)c2)nc1COc1ccc2ncccc2c1` [Example 21, 1-(5-bromopyridin-3-yl)-3-[(quinolin-6-yloxy)methyl] pyridazin-4(1H)-one], the IC50 is less than 0.1 µM.

As to `CCn1cc(-n2ccc(=O)c(COc3ccc4ncccc4c3)n2)cn1` [Example 22, 1-(1-ethyl-1H-pyrazol-4-yl)-3-[(quinolin-6-yloxy)methyl] pyridazin-1(4H)-one], the IC50 was less than 0.1 µM.

As for `CCOc1cnc2ccc(OCc3nn(-c4cnn(C)c4)ccc3=O)cc2c1` [Example 23, 3-{[(3-Ethoxyquinolin-6-yl)oxy]methyl}-1-(1-methyl-1H-pyrazol-4-yl)pyridazin-4(1H)-one], the IC50 was less than 0.1 µM.

With `COCCOc1cnc2ccc(OCc3nn(-c4cnn(C)c4)ccc3=O)cc2c1` [Example 24, 3-({[3-(2-methoxyethoxy)quinolin-6-yl]oxy}methyl)-1-(1-methyl-1H-pyrazol-4-yl)pyridazin-4(1H)-one], the IC50 was less than 0.1 µM.

For `Cn1cc(-n2ccc(=O)c(COc3ccc4ncc(OCC5CCOC5)cc4c3)n2)cn1` (stereo not drawn) [Example 25, 1-(1-methyl-1H-pyrazol-4-yl)-3-({[3-(tetrahydrofuran-3-ylmethoxy)quinolin-6-yl]oxy}methyl)pyridazin-4(1H)-one], the IC50 was less than 0.1 µM.

On to `Cn1cc(-n2ccc(=O)c(COc3ccc4ncc(OCC5(C)COC5)cc4c3)n2)cn1` [Example 26, 3-[({3-[(3-methyloxetan-3-yl)methoxy]quinolin-6-yl}oxy)methyl]-1-(1-methyl-1H-pyrazol-4-yl)pyridazin-4(1H)-one], for which the IC50 is less than 0.1 µM.

As for `Cn1cc(-n2ccc(=O)c(COc3ccc4ncncc4c3)n2)cn1` [Example 27, 1-(1-methyl-1H-pyrazol-4-yl)-3-[(quinazolin-6-yloxy)methyl]pyridazin-4(1H)-one], the IC50 is 0.1 to 1 µM.

For the molecule `COCCOc1cnc2ccc(OCc3nn(-c4cc(F)cc(C#N)c4)ccc3=O)cc2c1` [Example 28, 3-fluoro-5-[3-({[3-(2-methoxyethoxy)quinolin-6-yl]oxy}methyl)-4-oxopyridazin-1(4H)-yl]benzonitrile], the IC50 was less than 0.1 µM.

Take `COCCOc1cnc2ccc(OCc3nn(-c4cc(Cl)cc(C#N)c4)ccc3=O)cc2c1` [Example 29, 3-chloro-5-[3-({[3-(2-methoxyethoxy)quinolin-6-yl]oxy}methyl)-4-oxopyridazin-1(4H)-yl]benzonitrile]: the IC50 was less than 0.1 µM.

With `COCCOc1cnc2ccc(OCc3nn(-c4ccc(F)c(F)c4)ccc3=O)cc2c1` [Example 30, 1-(3,4-difluorophenyl)-3-({[3-(2-methoxyethoxy)quinolin-6-yl]oxy}methyl)pyridazin-4(1H)-one], the IC50 was less than 0.1 µM.

Take `COCCOc1cnc2ccc(OCc3nn(-c4cc(F)cc(F)c4)ccc3=O)cc2c1` [Example 31, 1-(3,5-difluorophenyl)-3-({[3-(2-methoxyethoxy)quinolin-6-yl]oxy}methyl)pyridazin-4(1H)-one]: the IC50 is less than 0.1 µM.

Turning to `Cn1cc(-n2ccc(=O)c(COc3cc(F)c4ncccc4c3)n2)cn1` [Example 32, 3-{[(8-fluoroquinolin-6-yl)oxy]methyl}-1-(1-methyl-1H-pyrazol-4-yl)pyridazin-4(1H)-one], the 50% inhibitory concentration (IC50) lay within 1 to 3 µM.

Take `CCOCCOc1ccnc2ccc(OCc3nn(-c4cnn(C)c4)ccc3=O)cc12` [Example 33, 3-({[4-(2-ethoxyethoxy)quinolin-6-yl]oxy}methyl)-1-(1-methyl-1H-pyrazol-4-yl)pyridazin-4(1H)-one]: the IC50 was 0.1 to 1 µM.

Regarding `COCCOc1ccnc2ccc(OCc3nn(-c4cnn(C)c4)ccc3=O)cc12` [Example 34, 3-({[4-(2-methoxyethoxy)quinolin-6-yl]oxy}methyl)-1-(1-methyl-1H-pyrazol-4-yl)pyridazin-4(1H)-one], the IC50 was 0.1 to 1 µM.

`COc1cnc2ccc(OCc3nn(-c4cnn(C)c4)ccc3=O)cc2c1` [Example 35, 3-{[(3-methoxyquinolin-6-yl)oxy]methyl}-1-(1-methyl-1H-pyrazol-4-yl)pyridazin-4(1H)-one]: the IC50 was less than 0.1 µM.

`CCn1cc(-n2ccc(=O)c(COc3ccc4ncc(OCCOC)cc4c3)n2)cn1` [Example 36, 1-(1-ethyl-1H-pyrazol-4-yl)-3-({[3-(2-methoxyethoxy)quinolin-6-yl]oxy}methyl)pyridazin-4(1H)-one]: the IC50 is less than 0.1 µM.

For the molecule `Cn1cc(-n2ccc(=O)c(COc3ccc4ncc(F)cc4c3)n2)cn1` [Example 37, 3-{[(3-fluoroquinolin-6-yl)oxy]methyl}-1-(1-methyl-1H-pyrazol-4-yl)pyridazin-4(1H)-one], the IC50 is less than 0.1 µM.

Take `COCCOc1cnc2ccc(OCc3nn(-c4cccc(Br)c4)ccc3=O)cc2c1` [Example 38, 1-(3-bromophenyl)-3-({[3-(2-methoxyethoxy)quinolin-6-yl]oxy}methyl)pyridazin-4(1H)-one]: the IC50 was less than 0.1 µM.

Turning to `Cn1cc(-n2ccc(=O)c(COc3ccc4ncc(-n5cnnc5)cc4c3)n2)cn1` [Example 39, 1-(1-methyl-1H-pyrazol-4-yl)-3-({[3-(4H-1,2,4-triazol-4-yl)quinolin-6-yl]oxy}methyl)pyridazin-4(1H)-one], the IC50 is 0.1 to 1 µM.

As to `COCc1cn(-c2cnc3ccc(OCc4nn(-c5cnn(C)c5)ccc4=O)cc3c2)nn1` [Example 40, 3-[({3-[4-(methoxymethyl)-1H-1,2,3-triazol-1-yl]quinolin-6-yl}oxy)methyl]-1-(1-methyl-1H-pyrazol-4-yl)pyridazin-4(1H)-one], the half-inhibitory concentration (IC50) is less than 0.1 µM.

Regarding `Cn1cc(-n2ccc(=O)c(COc3ccc4ncc(-n5cc(COC6CCNCC6)nn5)cc4c3)n2)cn1` [Example 41, 1-(1-methyl-1H-pyrazol-4-yl)-3-{[(3-{4-[(piperidin-4-yloxy)methyl]-1H-1,2,3-triazol-1-yl}quinolin-6-yl)oxy]methyl}pyridazin-4(1H)-one], the IC50 lay within 0.1 to 1 µM.

Regarding `Cn1cc(-n2ccc(=O)c(COc3ccc4ncc(-n5ccnn5)cc4c3)n2)cn1` [Example 42, 1-(1-Methyl-1H-pyrazol-4-yl)-3-({[3-(1H-1,2,3-triazol-1-yl)quinolin-6-yl]oxy}methyl)pyridazin-4(1H)-one], the IC50 was less than 0.1 µM.

Turning to `CCOc1ccnc2ccc(OCc3nn(-c4cnn(C)c4)ccc3=O)cc12` [Example 43, 3-{[(4-Ethoxyquinolin-6-yl)oxy]methyl}-1-(1-methyl-1H-pyrazol-4-yl)pyridazin-4(1H)-one], the IC50 is less than 0.1 µM.
